Reference: patent US4456597A

Key:
Format in all cases: cell-based
Conditions in all cases: 1.0 μg/ml
spleen cell suspension [1] = experiment: IF induction in vitro, mouse (Table 6)
Description: (§1) A spleen cell suspension (10^7 cells/ml) was prepared by the method of hereinafter described Experiment 1 using an Eagle MEM medium (commercial product of Nissui Seiyaku K.K., Tokyo) containing a 10% calf serum (which was replaced by a 10% fetal cattle serum in the cases of human tests), each of which fraction (1 ml) was added with a given concetration of the sample and incubated overnight at a given temperature. The cultured liquor was centrifuged to separate a supernatant which was used for determining the IF activity induced. In the case of humans, the fresh spleen was collected from a person (adult deceased by external wounds) and used for the preparation of a leucocytes suspension on each occasion, and also blood was collected from the vein at the upper arm of a person (adult), from which the serum was separated to use for the preparation of a serum suspension on each occasion.
(§2) The IF activities were determined by using the cells shown in Table 5 in a similar manner to that hereinafter described in Experiment 1.

Human (spleen) = experiment: IF induction in vitro, human spleen (Table 6)
Description: as §1, §2

spleen cell suspension [2] = experiment: IF induction in vitro, rabbit (Table 6)
Description: as §1, §2

Poly I:C
IF activity in vitro (Control) (spleen cell suspension [1]): 80
IF activity in vitro (Control) (Human (spleen)): < 10
IF activity in vitro (Control) (spleen cell suspension [2]): 190
